Laboratory results published in article PMC9170106, “Pre-clinical evaluation of LASSBio-1491: From in vitro pharmacokinetic study to in vivo leishmanicidal activity” (PLoS ONE, 2022).
Several values for one entry are separate records, joined by “and”; a condition that tells them apart may be missing. Equal entries are not always repeated.

Key:
Microsomal metabolism = type: in vitro ADME; settings: rat liver microsomes
Procedure: The study of the microsomal metabolism of the compounds was evaluated by placing 1 mg/ml rat liver microsome in a microcentrifuge tube, in the presence of a NADPH generator system (1 mM NADP^+, 1.5 mM MgCl2, 3.5 mM glucose-6-phosphate and 0.5 U/mL glucose-6-phosphate dehydrogenase) and phosphate buffer pH 7.4 in sufficient quantity for 250 μL. After 15 minutes of pre-incubation at 37°C in a water bath, the enzymatic reactions were started by adding 2 μL of a stock solution 1 mM from one of the prototypes (500 μL 20% DMSO 80% CH3CN), so that a final concentration of 5 μM was reached (0.2% DMSO, 0.8% acetonitrile).
Then, the samples were again incubated at 37°C under agitation for predetermined and fixed periods (0, 15, 30, 45 and 60 minutes). At the end of the incubation period 500 μL of cold methanol and 500 μL of cold acetonitrile containing 5 μM of methyl 1,1’biphenyl-4-carboxylate 5 μM (internal standard) were added to the wells to stop the reaction and the samples were homogenized and kept in an ice bath to accelerate protein precipitation. The mixture was centrifuged at 24500 x g for 15 minutes at 4°C (Universal centrifuge 320R Hettich®). Finally, the supernatant (1 mL) was filtrated and placed in vials to be analyzed by HPLC-PDA, Shimadzu—LC20AD, Kromasil C-18 column (4.6 mm x 250 mm, 5 μm), SPD M20A diode array detector, flow 1 mL/min, mobile phase acetonitrile: water 1:1 (v/v) for LASSBio-1491 and acetonitrile: water 60:40 (v/v) for LASSBio-1736, 20 minutes at 254 nm wavelength. Then, the microsomal half-life and clearance were calculated.

Plasma stability = type: in vitro ADME, rat
Procedure: For analysis of plasma stability, the LASSBio-1491 in a final concentration of 5 μM from stock solution of 1 mM, was added in 50 μL of rat plasma solution diluted in 250 μL with PBS (pH 7.4) and was placed in a shaker at 37 °C under vigorous stirring for 0, 30, 60, 120 and 240 minutes. After each reaction time, 500 μL of cold methanol and 500 μL of cold acetonitrile containing 5 uM of methyl 1,1’biphenyl-4-carboxylate 5 μM (internal standard) were added to the wells to stop the reaction. The solution was mixed and centrifuged at 24500 x g for 15 min (Universal centrifuge 320R Hettich®). The supernatant (1 mL) was filtrated and placed in vials to be analyzed by HPLC-PDA, Shimadzu—LC20AD, Kromasil C-18 column (4.6 mm x 250 mm, 5 μm), SPD M20A diode array detector, flow 1 mL/min, mobile phase acetonitrile: water 1:1 (v/v) for LASSBio-1491 and acetonitrile: water 60:40 (v/v) for LASSBio-1736, for 20 minutes at 254 nm wavelength.

PAMPA-BBB permeability = experiment: PAMPA-BBB permeability
Text: The parallel artificial membrane permeability assay uses 96-well plate in a “sandwich” type system, where one plate overlaps the other (PAMPA). […] The lipid mixture that impregnates the PVDF filter has a different constitution for the permeability tests for the blood-brain barrier (Brain lipid from pig extract in dodecane) and gastro-intestinal tract (L-α soy phosphatidylcholine in dodecane). In the PAMPA BBB and TGI assays, the optical density values obtained in the reading at each selected wavelength, for each of the compounds were analyzed in comparison with the values of several controls. In the case of the BBB, these values were used to elaborate an equation and determine the permeability coefficient (Pe), using a previously elaborated spreadsheet, and, for the TGI, these values were used to determine the absorbed fraction (Fa%), both using the Excel® program.

[1] = test system: L. major amasitigote 5-ASKH substrain; experiment: In vitro activity against intramacrophage amastigotes, 5-ASKH; type: cell-based; settings: Leishmania major
Procedure: (§1) Briefly, female BALB/c mice (6 to 8 weeks old) received 1 mL sterile of 3% sodium thioglycolate by intraperitoneal route (i.p.) and were euthanized after 4 days. The intraperitoneal lavage was collected from the peritoneal cavity of mice using sterile PBS and cells were counted in a hemocytometer. Peritoneal adherent cells (macrophages) were plated at a concentration of 2 x 10^5 cells per well in 24-well culture plates containing glass coverslips. Subsequently, L. major promastigotes (harvested after the third passage) were added at a concentration of 2 x 10^6 parasites per well, aiming to infect the macrophages. […] After 24 hours in an incubator at 37 °C and 5% CO2, the coverslips were washed with PBS and stained with Giemsa-May Grünwald. The number of amastigotes in 100 macrophages was determined by counting using optical microscope (100x objective). Furthermore, the cell culture supernatant was also collected for nitrite measurement using the Griess reaction, an indirect way of determining the concentration of nitric oxide in the supernatant of infected macrophages from the experimental groups. The results obtained were expressed as the mean ± S.E.M. of the number of amastigotes or nitrite concentration from duplicate cultures of representative assays, with the data analyzed by ANOVA and Dunnett hoc tests, considering a significance level of p < 0.05. In addition, the linear regression analysis from the Kc values at employed concentrations was used to determine the IC50.

[2] = test system: peritoneal macrophages infected with L. major LV39; experiment: Nitrite measurement (Griess reaction) in infected macrophages; type: cell-based, BALB/c mice; settings: BALB/c macrophages infected with L. major LV39
Procedure: as §1, with “In addition, the linear regression analysis from the Kc values at employed concentrations was used to determine the IC50.” left out

[3] = Aqueous solubility by UV spectroscopy; type: physicochemical; settings: phosphate buffer solution, buffer solution pH 7.4, 37 °C
Procedure: The solubility assay was carried out by correlating the concentration with the absorbance obtained by ultraviolet. First, a stock solution of the compound was prepared by dissolving 1 mg in 20 mL of methanol, and then the wavelength of greatest absorption of each compound was obtained by scanning between wavelengths from 200 nm to 500 nm. From the stock solution, six dilutions were prepared (dilution factor: 2.5), and the absorbance reading was performed in quartz cuvettes (10 mm optical path) in the UV-VIS spectrophotometer (Femto 800XI) at the previously determined wavelength. With the values obtained, a calibration curve with linear regression was made, in which the linearity of the analytical method is observed, with values of correlation coefficient (p > 0.95).
The compound was dissolved in a phosphate buffer solution (pH 7.4), prepared according to the Brazilian Pharmacopoeia (Vol.1) to obtain a supersaturated solution. The supersaturated aqueous solution was kept under stirring for 4 hours at 37°C and then the sample was filtered on a 0.45 μm filter to carry out the reading at the corresponding wavelength of the compound. The solubility was then determined through the equation of the straight line obtained by the linear regression of the calibration curve of each compound [19].

O=C(N/N=C/c1ccc([N+](=O)[O-])o1)NNC(=O)c1ccc(Cl)cc1 [LASSBio-1491]
half-life at 5 μM (Microsomal metabolism; pH 7.4, with co-factor): 2.68 h | microsomal CLint at 5 μM (Microsomal metabolism; pH 7.4, with co-factor, Volume x (0,693/t1/2)): 1.07 µL/min/mg | Metabolism rate with co-factor (Microsomal metabolism; with NADPH regenerating system): 25.46% | Elimination rate constant (k) (Microsomal metabolism; with co-factor): 0.0043 | Clapp (Microsomal metabolism; with co-factor, scaled to liver and rat weight): 0.166 mL/min/kg | Elimination rate constant (k) (Plasma stability; rat plasma): 0.0006 | t1/2 (Plasma stability; rat plasma): 19.25 h | Metabolism rate (Plasma stability; rat plasma, 5 μM, 37 °C, up to 240 min): 15.11% | half-life at 5 μM (Plasma stability; rat, rat plasma diluted with PBS, pH 7.4, rat plasma): 28.9 h | recovery at 5 μM (Plasma stability; rat, rat plasma diluted with PBS, pH 7.4, read-out: Recovery rate): 88.5% | Papp (PAMPA-BBB permeability; PAMPA): 2.96 ×10⁻⁶ cm/s | Classification (PAMPA-BBB permeability; PAMPA-BBB): CNS+/- | IC50 ([1]; Macrophage, amastigote 5-ASKH in macrophages, 24 h): 7.3 ± 0.6 µM | Emax ([1]; amastigote 5-ASKH, read-out: Maximum effect (% ± S.E.M.)): 67.5 ± 4.8% | NO production (nitrite) [2]: increased NO production | solubility at 4 h [3]: 8.72 µM and 3.06 µg/mL
